Experiments:
Mushroom tyrosinase = Mushroom tyrosinase (Agaricus bisporus, UniProt O42713+Q00024+C7FF04+C7FF05); assay: Inhibition of mushroom tyrosinase using tyrosine as substrate incubated for 20 mins followed by substrate addition and measured every 10 mins for 30 mins
[1] = Inhibition of Elastase (unknown origin) using N-methoxysuccinyl-Ala-Ala-Pro-Val-p-nitroanilide as substrate incubated for 20 mins followed by substrate addition and measured after 40 mins; parameters: species or system Homo sapiens
[2] = compound: COc1cc(C)c2c(=O)c3ccccc3oc2c1OC; assay: Uncompetitive inhibition of Tyrosinase (unknown origin) assessed as Michaelis-Menten constant at 16 uM using tyrosine as substrate incubated for 20 mins followed by substrate addition and measured every 10 mins for 30 mins by Lineweaver-Burk plot analysis (reference value: […] +/- […] mM); conditions: Homo sapiens, time 50.0 min
[3] = compound: COc1cc(C)c2c(=O)c3ccccc3oc2c1OC; assay: Uncompetitive inhibition of Tyrosinase (unknown origin) assessed as Michaelis-Menten constant at 8 uM using tyrosine as substrate incubated for 20 mins followed by substrate addition and measured every 10 mins for 30 mins by Lineweaver-Burk plot analysis (reference value: […] +/- […] mM); conditions: Homo sapiens, time 50.0 min
[4] = compound: COc1cc(C)c2c(=O)c3ccccc3oc2c1OC; assay: Uncompetitive inhibition of Tyrosinase (unknown origin) assessed as Michaelis-Menten constant at 4 uM using tyrosine as substrate incubated for 20 mins followed by substrate addition and measured every 10 mins for 30 mins by Lineweaver-Burk plot analysis (reference value: […] +/- […] mM); conditions: Homo sapiens, time 50.0 min
[5] = compound: COc1cc(C)c2c(=O)c3ccccc3oc2c1OC; assay: Uncompetitive inhibition of Tyrosinase (unknown origin) assessed as Michaelis-Menten constant at 2 uM using tyrosine as substrate incubated for 20 mins followed by substrate addition and measured every 10 mins for 30 mins by Lineweaver-Burk plot analysis (reference value: […] +/- […] mM); conditions: Homo sapiens, time 50.0 min
[6] = compound: Cc1cc(O)c(O)c2oc3cc(O)ccc3c(=O)c12; assay: Uncompetitive inhibition of Tyrosinase (unknown origin) assessed as Michaelis-Menten constant at 13.2 uM using tyrosine as substrate incubated for 20 mins followed by substrate addition and measured every 10 mins for 30 mins by Lineweaver-Burk plot analysis (reference value: […] +/- […] mM); conditions: Homo sapiens, time 50.0 min
[7] = compound: Cc1cc(O)c(O)c2oc3cc(O)ccc3c(=O)c12; assay: Uncompetitive inhibition of Tyrosinase (unknown origin) assessed as Michaelis-Menten constant at 6.6 uM using tyrosine as substrate incubated for 20 mins followed by substrate addition and measured every 10 mins for 30 mins by Lineweaver-Burk plot analysis (reference value: […] +/- […] mM); conditions: Homo sapiens, time 50.0 min
[8] = compound: Cc1cc(O)c(O)c2oc3cc(O)ccc3c(=O)c12; assay: Uncompetitive inhibition of Tyrosinase (unknown origin) assessed as Michaelis-Menten constant at 3.3 uM using tyrosine as substrate incubated for 20 mins followed by substrate addition and measured every 10 mins for 30 mins by Lineweaver-Burk plot analysis (reference value: […] +/- […] mM); conditions: Homo sapiens, time 50.0 min
[9] = compound: Cc1cc(O)c(O)c2oc3cc(O)ccc3c(=O)c12; assay: Uncompetitive inhibition of Tyrosinase (unknown origin) assessed as Michaelis-Menten constant at 1.65 uM using tyrosine as substrate incubated for 20 mins followed by substrate addition and measured every 10 mins for 30 mins by Lineweaver-Burk plot analysis (reference value: […] +/- […] mM); conditions: Homo sapiens, time 50.0 min
[10] = compound: COc1cc(C)c2c(=O)c3ccccc3oc2c1OC; assay: Uncompetitive inhibition of Tyrosinase (unknown origin) assessed as maximal velocity at 16 uM using tyrosine as substrate incubated for 20 mins followed by substrate addition and measured every 10 mins for 30 mins by Lineweaver-Burk plot analysis (reference value: […] +/- […] /min); conditions: Homo sapiens, time 50.0 min
[11] = compound: COc1cc(C)c2c(=O)c3ccccc3oc2c1OC; assay: Uncompetitive inhibition of Tyrosinase (unknown origin) assessed as maximal velocity at 8 uM using tyrosine as substrate incubated for 20 mins followed by substrate addition and measured every 10 mins for 30 mins by Lineweaver-Burk plot analysis (reference value: […] +/- […] /min); conditions: Homo sapiens, time 50.0 min
[12] = compound: COc1cc(C)c2c(=O)c3ccccc3oc2c1OC; assay: Uncompetitive inhibition of Tyrosinase (unknown origin) assessed as maximal velocity at 4 uM using tyrosine as substrate incubated for 20 mins followed by substrate addition and measured every 10 mins for 30 mins by Lineweaver-Burk plot analysis (reference value: […] +/- […] /min); conditions: Homo sapiens, time 50.0 min
[13] = compound: COc1cc(C)c2c(=O)c3ccccc3oc2c1OC; assay: Uncompetitive inhibition of Tyrosinase (unknown origin) assessed as maximal velocity at 2 uM using tyrosine as substrate incubated for 20 mins followed by substrate addition and measured every 10 mins for 30 mins by Lineweaver-Burk plot analysis (reference value: […] +/- […] /min); conditions: Homo sapiens, time 50.0 min
[14] = compound: Cc1cc(O)c(O)c2oc3cc(O)ccc3c(=O)c12; assay: Uncompetitive inhibition of Tyrosinase (unknown origin) assessed as maximal velocity at 13.2 uM using tyrosine as substrate incubated for 20 mins followed by substrate addition and measured every 10 mins for 30 mins by Lineweaver-Burk plot analysis (reference value: […] +/- […] /min); conditions: Homo sapiens, time 50.0 min
[15] = compound: Cc1cc(O)c(O)c2oc3cc(O)ccc3c(=O)c12; assay: Uncompetitive inhibition of Tyrosinase (unknown origin) assessed as maximal velocity at 6.60 uM using tyrosine as substrate incubated for 20 mins followed by substrate addition and measured every 10 mins for 30 mins by Lineweaver-Burk plot analysis (reference value: […] +/- […] /min); conditions: Homo sapiens; dose 6.6 µM, time 50.0 min
[16] = compound: Cc1cc(O)c(O)c2oc3cc(O)ccc3c(=O)c12; assay: Uncompetitive inhibition of Tyrosinase (unknown origin) assessed as maximal velocity at 3.30 uM using tyrosine as substrate incubated for 20 mins followed by substrate addition and measured every 10 mins for 30 mins by Lineweaver-Burk plot analysis (reference value: […] +/- […] /min); conditions: Homo sapiens; dose 3.3 µM, time 50.0 min
[17] = compound: Cc1cc(O)c(O)c2oc3cc(O)ccc3c(=O)c12; assay: Uncompetitive inhibition of Tyrosinase (unknown origin) assessed as maximal velocity at 1.65 uM using tyrosine as substrate incubated for 20 mins followed by substrate addition and measured every 10 mins for 30 mins by Lineweaver-Burk plot analysis (reference value: […] +/- […] /min); conditions: Homo sapiens, time 50.0 min

IC50 (Mushroom tyrosinase) [µM] | Molecule | other results
5.12 | O=c1c2ccccc2oc2c(O)c(O)ccc12 [3,4-DIHYDROXYXANTHONE] | –
3.37 | COc1cc(C(Br)Br)c2c(=O)c3ccccc3oc2c1OC | –
5.57 | COc1ccc2c(=O)c3c(C)c(Br)c(OC)c(OC)c3oc2c1 | –
2 | COc1cc(C)c2c(=O)c3ccccc3oc2c1OC | –
9.26 | O=c1c2ccccc2oc2cc(O)ccc12 | –
4.52 | O=c1c2cc(O)ccc2oc2cccc(O)c12 | –
5.14 | COc1cccc2oc3ccccc3c(=O)c12 | –
3.16 | COc1cc(C=O)c2c(=O)c3ccc(O)cc3oc2c1OC | –
5.2 | COc1ccc2c(=O)c3ccccc3oc2c1O | –
8.29 | COc1cc2oc3ccccc3c(=O)c2cc1OC | –
89.37 | O=Cc1cc(O)c(O)c2oc3ccccc3c(=O)c12 | –
7.8 | O=c1c2ccccc2oc2ccc(O)c(O)c12 | –
5.14 | COc1ccc2c(=O)c3ccccc3oc2c1 | –
2.24 | COc1ccc2c(=O)c3c(C)cc(OC)c(OC)c3oc2c1 | –
3.01 | COc1c(O)cc2oc3ccccc3c(=O)c2c1O | –
4.42 | O=c1c2ccc(O)cc2oc2cc(O)ccc12 | IC50 [1]: 91.8 µM
5.12 | COc1ccc2c(=O)c3ccccc3oc2c1OC | –
4.02 | COc1ccc2oc3ccccc3c(=O)c2c1OC | –
8.46 | O=c1c2ccccc2oc2c(O)cccc12 | –
29.13 | COc1cc(C=O)c2c(=O)c3ccccc3oc2c1OC | –
5.6 | O=c1c2ccccc2oc2ccc(O)cc12 | –
5.33 | COc1cccc2c(=O)c3ccccc3oc12 | –
5.7 | O=c1c2ccccc2oc2cc(O)c(O)cc12 | –
8.47 | COc1ccc2oc3ccccc3c(=O)c2c1 | –
– | H-MAAPVCK-OH | IC50 [1]: 0.26 µM
3.28 | Cc1cc(O)c(O)c2oc3cc(O)ccc3c(=O)c12 | –
3.81 | COc1c(O)ccc2c(=O)c3ccccc3oc12 | –
1.9 | COc1ccc2c(=O)c3c(C)c(Cl)c(OC)c(OC)c3oc2c1 | –
8.93 | Cc1cc(O)c(O)c2oc3ccccc3c(=O)c12 | –
– | Tyrosinase (Homo sapiens), P14679 (protein) MLLAVLYCLLWSFQTSAGHFPRACVSSKNLMEKECCPPWSGDRSPCGQLSGRGSCQNILLSNAPLGPQFPFTGVDDRESWPSVFYNRTCQCSGNFMGFNCGNCKFGFWGPNCTERRLLVRRNIFDLSAPEKDKFFAYLTLAKHTISSDYVIPIGTYGQMKNGSTPMFNDINIYDLFVWMHYYVSMDALLGGSEIWRDIDFAHEAPAFLPWHRLFLLRWEQEIQKLTGDENFTIPYWDWRDAEKCDICTDEYMGGQHPTNPNLLSPASFFSSWQIVCSRLEEYNSHQSLCNGTPEGPLRRNPGNHDKSRTPRLPSSADVEFCLSLTQYESGSMDKAANFSFRNTLEGFASPLTGIADASQSSMHNALHIYMNGTMSQVQGSANDPIFLLHHAFVDSIFEQWLRRHRPLQEVYPEANAPIGHNRESYMVPFIPLYRNGDFFISSKDLGYDYSYLQDSDPDSFQDYIKSYLEQASRIWSWLLGAAMVGAVLTALLAGLVSLLCRHKRKQLPEEKQPLLMEKEDYHSLYQSHL | Km [2]: 26 µM; Km [3]: 27 µM; Km [4]: 41 µM; Km [5]: 53 µM; Km [6]: 28 µM; Km [7]: 46 µM; Km [8]: 51 µM; Km [9]: 63 µM; Vmax [10]: 0.0019 min⁻¹; Vmax [11]: 0.0025 min⁻¹; Vmax [12]: 0.0031 min⁻¹; Vmax [13]: 0.0036 min⁻¹; Vmax [14]: 0.0028 min⁻¹; Vmax [15]: 0.0032 min⁻¹; Vmax [16]: 0.0035 min⁻¹; Vmax [17]: 0.0037 min⁻¹

Molecule | IC50 (Mushroom tyrosinase) [µM] | other results
O=c1c2ccccc2oc2ccccc12 [XANTHONE] | 8.84 | –

Reference: ChEMBL document CHEMBL4673324, “Xanthones for melanogenesis inhibition: Molecular docking and QSAR studies to understand their anti-tyrosinase activity” (Bioorg Med Chem, 2021)
